From article PMC6120666 (The EMBO Journal, 2018) come the findings set out here.

Holding throughout (experiment): Drug affinity chromatography with c-ponatinib and LC-MS/MS (ponatinib interactome)
Holding throughout (type): binding

The target in assay [1] is T1, proteins of U2OS cell lysate (Homo sapiens, UniProt O00303).
T1 construct: Proteins enriched by c-ponatinib from U2OS cell lysate; endogenous in cells; host or cells: U2OS cell lysate
The following applies: EIF3F, Eukaryotic translation initiation factor 3 subunit F. In a few lines: (§1)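 Proteins were identified by nano-UPLC–MS/MS after elution with formic acid and trypsin digestion. They were captured from U2OS lysate (2 mg protein per pulldown, NP-40 buffer) on amine-coupled NHS beads during a 2 h incubation at 4 °C.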

In assay [2] the target is T2, proteins of U2OS cell lysate (Homo sapiens, UniProt O75521).
T2 construct: Proteins enriched by c-ponatinib from U2OS cell lysate; endogenous in cells; host or cells: U2OS cell lysate
To be noted: ECI2, Enoyl-CoA delta isomerase 2, mitochondrial. The method in brief: as §1

The target of assay [3] is T3, proteins of U2OS cell lysate (Homo sapiens, UniProt P07947).
T3 construct: Proteins enriched by c-ponatinib from U2OS cell lysate; endogenous in cells; host or cells: U2OS cell lysate
To be noted: YES1, Tyrosine-protein kinase Yes. In a few lines: as §1

Assay [4] concerns the target T4, proteins of U2OS cell lysate (Homo sapiens, UniProt P07948).
T4 construct: Proteins enriched by c-ponatinib from U2OS cell lysate; endogenous in cells; host or cells: U2OS cell lysate
The following applies: LYN, Tyrosine-protein kinase Lyn. In a few lines:
as §1

In assay [5] the target is T5, proteins of U2OS cell lysate (Homo sapiens, UniProt P11021).
T5 construct: Proteins enriched by c-ponatinib from U2OS cell lysate; endogenous in cells; host or cells: U2OS cell lysate
To be noted: HSPA5, 78 kDa glucose-regulated protein. The method in brief:
as §1

The target in assay [6] is T6, proteins of U2OS cell lysate (Homo sapiens, UniProt P12931).
T6 construct: Proteins enriched by c-ponatinib from U2OS cell lysate; endogenous in cells; host or cells: U2OS cell lysate
To be noted: SRC, Proto-oncogene tyrosine-protein kinase Src. The method in brief: as §1

Assay [7] has as its target T7, proteins of U2OS cell lysate (Homo sapiens, UniProt P15880).
T7 construct: Proteins enriched by c-ponatinib from U2OS cell lysate; endogenous in cells; host or cells: U2OS cell lysate
The following applies: RPS2, 40S ribosomal protein S2. The method in brief: as §1

Assay [8] has as its target T8, proteins of U2OS cell lysate (Homo sapiens, UniProt P22234).
T8 construct: Proteins enriched by c-ponatinib from U2OS cell lysate; endogenous in cells; host or cells: U2OS cell lysate
The following applies: PAICS, Multifunctional protein ADE2. The method in brief:
as §1

Assay [9] concerns the target T9, proteins of U2OS cell lysate (Homo sapiens, UniProt P35606).
T9 construct: Proteins enriched by c-ponatinib from U2OS cell lysate; endogenous in cells; host or cells: U2OS cell lysate
The following applies: COPB2, Coatomer subunit beta. The method in brief: as §1

Assay [10] addresses T10, proteins of U2OS cell lysate (Homo sapiens, UniProt P50990).
T10 construct: Proteins enriched by c-ponatinib from U2OS cell lysate; endogenous in cells; host or cells: U2OS cell lysate
To be noted: CCT8, T-complex protein 1 subunit theta. In a few lines: as §1

Assay [11] addresses T11, proteins of U2OS cell lysate (Homo sapiens, UniProt P51149).
T11 construct: Proteins enriched by c-ponatinib from U2OS cell lysate; endogenous in cells; host or cells: U2OS cell lysate
To be noted: RAB7A, Ras-related protein Rab-7a. The method in brief:
as §1

The target in assay [12] is T12, proteins of U2OS cell lysate (Homo sapiens, UniProt P60953).
T12 construct: Proteins enriched by c-ponatinib from U2OS cell lysate; endogenous in cells; host or cells: U2OS cell lysate
To be noted: CDC42, Cell division control protein 42 homolog. In a few lines:
as §1

For assay [13], the target named is T13, proteins of U2OS cell lysate (Homo sapiens, UniProt Q12851).
T13 construct: Proteins enriched by c-ponatinib from U2OS cell lysate; endogenous in cells; host or cells: U2OS cell lysate
The following applies: MAP4K2, Mitogen-activated protein kinase kinase kinase kinase 2. The method in brief: as §1

Assay [14] addresses T14, proteins of U2OS cell lysate (Homo sapiens, UniProt Q15233).
T14 construct: Proteins enriched by c-ponatinib from U2OS cell lysate; endogenous in cells; host or cells: U2OS cell lysate
The following applies: NONO, Non-POU domain-containing octamer-binding protein. The method in brief: as §1

Assay [15] addresses T15, proteins of U2OS cell lysate (Homo sapiens, UniProt Q9NTJ3).
T15 construct: Proteins enriched by c-ponatinib from U2OS cell lysate; endogenous in cells; host or cells: U2OS cell lysate
The following applies: SMC4, Structural maintenance of chromosomes protein 4. In a few lines: as §1

Assay [16] addresses T16, proteins of U2OS cell lysate (Homo sapiens, UniProt Q9UMS4).
T16 construct: Proteins enriched by c-ponatinib from U2OS cell lysate; endogenous in cells; host or cells: U2OS cell lysate
To be noted: PRPF19, Pre-mRNA-processing factor 19. In a few lines:
as §1

Assay [17] addresses T17, proteins of U2OS cell lysate (Homo sapiens, UniProt Q9Y4K4).
T17 construct: Proteins enriched by c-ponatinib from U2OS cell lysate; endogenous in cells; host or cells: U2OS cell lysate
To be noted: MAP4K5, Mitogen-activated protein kinase kinase kinase kinase 5. In a few lines: as §1

Assay [18] deals with T18, proteins of U2OS cell lysate (Homo sapiens, UniProt P20674).
T18 construct: Proteins enriched by c-ponatinib from U2OS cell lysate; endogenous in cells; host or cells: U2OS cell lysate
To be noted: captured protein COX5A, Rank 122. In a few lines:
as §1

The target of assay [19] is T19, proteins of U2OS cell lysate (Homo sapiens, UniProt Q9UNM6).
T19 construct: Proteins enriched by c-ponatinib from U2OS cell lysate; endogenous in cells; host or cells: U2OS cell lysate
To be noted: captured protein PSMD13, Rank 204. In a few lines:
as §1

T17 sequence (Q9Y4K4 whole entry): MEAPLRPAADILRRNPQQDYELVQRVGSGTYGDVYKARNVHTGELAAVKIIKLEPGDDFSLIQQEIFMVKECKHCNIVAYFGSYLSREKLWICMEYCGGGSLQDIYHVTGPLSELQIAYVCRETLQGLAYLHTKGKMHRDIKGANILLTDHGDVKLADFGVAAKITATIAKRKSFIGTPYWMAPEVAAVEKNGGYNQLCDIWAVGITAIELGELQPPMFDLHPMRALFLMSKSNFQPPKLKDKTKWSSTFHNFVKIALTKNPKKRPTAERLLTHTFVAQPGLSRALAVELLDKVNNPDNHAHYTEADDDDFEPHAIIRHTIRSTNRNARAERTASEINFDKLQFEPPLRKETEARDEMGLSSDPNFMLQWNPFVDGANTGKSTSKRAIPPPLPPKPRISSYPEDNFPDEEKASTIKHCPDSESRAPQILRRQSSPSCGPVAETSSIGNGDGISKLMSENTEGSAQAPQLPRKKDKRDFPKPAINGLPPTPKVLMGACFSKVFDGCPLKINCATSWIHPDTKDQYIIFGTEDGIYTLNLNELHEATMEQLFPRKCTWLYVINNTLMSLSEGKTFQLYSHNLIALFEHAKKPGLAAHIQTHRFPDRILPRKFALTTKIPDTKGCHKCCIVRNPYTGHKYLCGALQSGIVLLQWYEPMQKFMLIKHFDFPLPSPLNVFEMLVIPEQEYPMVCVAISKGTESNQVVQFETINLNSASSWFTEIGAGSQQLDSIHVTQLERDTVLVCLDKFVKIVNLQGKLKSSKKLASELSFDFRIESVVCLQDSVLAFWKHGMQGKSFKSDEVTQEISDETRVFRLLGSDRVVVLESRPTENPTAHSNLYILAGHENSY
T4 sequence (P07948 whole entry): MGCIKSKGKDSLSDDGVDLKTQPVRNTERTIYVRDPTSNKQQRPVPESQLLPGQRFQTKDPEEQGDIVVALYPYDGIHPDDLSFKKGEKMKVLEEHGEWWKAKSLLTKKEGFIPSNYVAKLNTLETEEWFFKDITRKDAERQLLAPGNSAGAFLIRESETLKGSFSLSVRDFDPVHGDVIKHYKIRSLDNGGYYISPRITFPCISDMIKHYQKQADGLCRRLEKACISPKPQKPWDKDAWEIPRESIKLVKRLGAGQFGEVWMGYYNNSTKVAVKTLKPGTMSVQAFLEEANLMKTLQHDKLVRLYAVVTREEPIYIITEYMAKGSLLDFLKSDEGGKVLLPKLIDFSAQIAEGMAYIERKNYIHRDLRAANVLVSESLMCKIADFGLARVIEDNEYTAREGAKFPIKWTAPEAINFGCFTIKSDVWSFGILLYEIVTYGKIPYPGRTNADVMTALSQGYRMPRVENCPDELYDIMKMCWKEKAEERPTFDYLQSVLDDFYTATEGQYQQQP
T13 sequence (Q12851 whole entry): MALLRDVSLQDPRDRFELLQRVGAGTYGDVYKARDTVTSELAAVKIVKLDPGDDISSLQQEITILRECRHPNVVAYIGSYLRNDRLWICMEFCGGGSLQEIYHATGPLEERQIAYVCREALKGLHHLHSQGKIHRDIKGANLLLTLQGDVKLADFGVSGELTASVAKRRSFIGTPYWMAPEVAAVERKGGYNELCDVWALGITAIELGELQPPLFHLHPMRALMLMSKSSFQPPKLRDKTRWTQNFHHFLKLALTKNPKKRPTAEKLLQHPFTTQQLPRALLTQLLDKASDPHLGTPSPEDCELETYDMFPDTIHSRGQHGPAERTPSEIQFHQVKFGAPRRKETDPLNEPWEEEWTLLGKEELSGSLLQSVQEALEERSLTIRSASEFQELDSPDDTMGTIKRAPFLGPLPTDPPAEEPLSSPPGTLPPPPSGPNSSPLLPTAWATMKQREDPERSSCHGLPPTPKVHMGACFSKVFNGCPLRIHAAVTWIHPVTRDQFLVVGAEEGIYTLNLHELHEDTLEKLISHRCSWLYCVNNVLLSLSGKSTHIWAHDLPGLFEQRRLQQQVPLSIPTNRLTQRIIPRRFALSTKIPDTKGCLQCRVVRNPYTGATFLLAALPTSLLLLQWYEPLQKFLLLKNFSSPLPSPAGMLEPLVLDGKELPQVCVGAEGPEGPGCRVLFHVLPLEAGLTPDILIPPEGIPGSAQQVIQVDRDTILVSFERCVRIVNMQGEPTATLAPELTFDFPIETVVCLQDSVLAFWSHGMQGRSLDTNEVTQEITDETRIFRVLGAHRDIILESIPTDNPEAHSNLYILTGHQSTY
T15 sequence (Q9NTJ3 whole entry): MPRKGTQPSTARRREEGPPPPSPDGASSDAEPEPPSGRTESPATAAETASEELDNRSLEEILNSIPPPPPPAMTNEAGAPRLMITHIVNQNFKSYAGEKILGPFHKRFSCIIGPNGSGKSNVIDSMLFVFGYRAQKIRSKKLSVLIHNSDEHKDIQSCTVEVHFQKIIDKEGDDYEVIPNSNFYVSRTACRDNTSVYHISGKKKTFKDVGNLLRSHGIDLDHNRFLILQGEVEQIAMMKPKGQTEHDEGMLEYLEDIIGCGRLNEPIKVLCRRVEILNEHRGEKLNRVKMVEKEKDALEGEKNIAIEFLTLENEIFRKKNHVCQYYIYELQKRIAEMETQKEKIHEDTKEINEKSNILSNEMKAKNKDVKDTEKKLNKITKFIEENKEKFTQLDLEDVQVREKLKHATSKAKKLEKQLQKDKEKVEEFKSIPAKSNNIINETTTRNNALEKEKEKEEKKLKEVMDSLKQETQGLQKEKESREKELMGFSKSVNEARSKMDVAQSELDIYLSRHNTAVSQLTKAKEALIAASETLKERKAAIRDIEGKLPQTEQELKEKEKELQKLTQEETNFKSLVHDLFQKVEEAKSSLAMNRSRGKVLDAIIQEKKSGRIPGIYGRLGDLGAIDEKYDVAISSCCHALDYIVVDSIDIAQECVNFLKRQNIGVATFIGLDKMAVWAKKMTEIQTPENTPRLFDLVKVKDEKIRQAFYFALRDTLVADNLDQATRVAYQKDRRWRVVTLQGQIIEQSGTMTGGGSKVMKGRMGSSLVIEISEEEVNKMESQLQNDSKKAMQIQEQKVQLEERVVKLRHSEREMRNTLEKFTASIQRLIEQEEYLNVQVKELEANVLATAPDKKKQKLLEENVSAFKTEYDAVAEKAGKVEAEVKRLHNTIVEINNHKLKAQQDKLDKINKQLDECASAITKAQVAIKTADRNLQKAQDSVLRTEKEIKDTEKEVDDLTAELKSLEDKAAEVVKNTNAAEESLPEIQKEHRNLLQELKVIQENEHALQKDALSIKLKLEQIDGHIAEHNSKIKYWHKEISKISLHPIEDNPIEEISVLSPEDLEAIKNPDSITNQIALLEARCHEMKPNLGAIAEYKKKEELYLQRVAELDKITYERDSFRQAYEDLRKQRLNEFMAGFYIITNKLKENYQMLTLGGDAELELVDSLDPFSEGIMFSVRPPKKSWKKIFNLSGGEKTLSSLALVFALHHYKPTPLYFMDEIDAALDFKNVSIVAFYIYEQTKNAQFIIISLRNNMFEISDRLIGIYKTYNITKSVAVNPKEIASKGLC
T9 sequence (P35606 whole entry): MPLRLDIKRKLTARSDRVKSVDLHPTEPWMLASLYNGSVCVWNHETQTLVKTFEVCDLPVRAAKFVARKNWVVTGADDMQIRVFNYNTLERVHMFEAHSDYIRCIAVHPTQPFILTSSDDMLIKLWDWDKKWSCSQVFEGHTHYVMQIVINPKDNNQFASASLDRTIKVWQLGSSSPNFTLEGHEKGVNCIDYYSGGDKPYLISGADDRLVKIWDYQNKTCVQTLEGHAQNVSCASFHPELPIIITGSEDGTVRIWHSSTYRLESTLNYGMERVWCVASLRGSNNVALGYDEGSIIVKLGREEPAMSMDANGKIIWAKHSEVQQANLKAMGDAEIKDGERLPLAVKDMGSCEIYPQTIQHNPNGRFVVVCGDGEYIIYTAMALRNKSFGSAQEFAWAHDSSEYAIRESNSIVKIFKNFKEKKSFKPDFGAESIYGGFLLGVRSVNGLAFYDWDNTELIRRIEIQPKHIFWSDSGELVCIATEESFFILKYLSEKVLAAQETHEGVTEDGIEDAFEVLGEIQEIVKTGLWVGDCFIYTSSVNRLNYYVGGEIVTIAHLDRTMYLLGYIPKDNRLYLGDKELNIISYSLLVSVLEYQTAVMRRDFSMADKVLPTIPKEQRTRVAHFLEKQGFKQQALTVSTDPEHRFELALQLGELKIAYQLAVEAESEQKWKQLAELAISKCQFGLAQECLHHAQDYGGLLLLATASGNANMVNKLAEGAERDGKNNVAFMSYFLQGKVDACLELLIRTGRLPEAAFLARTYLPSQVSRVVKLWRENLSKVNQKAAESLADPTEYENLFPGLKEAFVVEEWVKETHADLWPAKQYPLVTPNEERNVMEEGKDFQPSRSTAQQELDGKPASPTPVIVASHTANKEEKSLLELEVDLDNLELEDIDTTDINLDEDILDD
T11 sequence (P51149 whole entry): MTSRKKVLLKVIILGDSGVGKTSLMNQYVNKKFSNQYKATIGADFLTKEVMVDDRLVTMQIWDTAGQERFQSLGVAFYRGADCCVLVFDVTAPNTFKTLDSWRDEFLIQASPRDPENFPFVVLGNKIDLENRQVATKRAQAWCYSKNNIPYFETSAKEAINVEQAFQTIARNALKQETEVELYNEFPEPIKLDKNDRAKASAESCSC
T1 sequence (O00303 whole entry): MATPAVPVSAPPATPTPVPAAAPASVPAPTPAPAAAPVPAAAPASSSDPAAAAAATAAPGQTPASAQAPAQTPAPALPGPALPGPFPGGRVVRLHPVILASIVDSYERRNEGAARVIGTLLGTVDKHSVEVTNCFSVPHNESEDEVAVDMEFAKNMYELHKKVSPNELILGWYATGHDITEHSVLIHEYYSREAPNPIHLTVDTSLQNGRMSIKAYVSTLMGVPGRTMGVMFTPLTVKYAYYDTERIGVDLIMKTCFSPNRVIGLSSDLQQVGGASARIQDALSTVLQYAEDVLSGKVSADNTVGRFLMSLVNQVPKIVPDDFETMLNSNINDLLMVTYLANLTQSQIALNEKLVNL
T18 sequence (P20674 42-150): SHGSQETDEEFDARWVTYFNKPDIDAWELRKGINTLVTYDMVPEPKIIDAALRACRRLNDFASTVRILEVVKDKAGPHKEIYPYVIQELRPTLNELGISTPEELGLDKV

Regarding `Cc1ccc(C(=O)Nc2ccc(CN3CCN(C)CC3)c(C(F)(F)F)c2)cc1C#Cc1cnc2cccnn12` [PON], the “Average LFQ PON_WT” value in [1] is 23.4858; in assay [2], 24.0947; in assay [3], 25.9404; in assay [4], 23.7419; in [5] it was 23.5505; in assay [6] it was 24.0256. The “Average LFQ PON_WT” value in assay [7] is recorded as 20.865; in assay [8], 21.2772; in assay [9], 21.0921; in assay [10] it was 24.1007; in assay [11] it was 20.9612; in assay [12] it was 20.531. For the same molecule, the “Average LFQ PON_WT” value in [13] came out at 27.1188; in [14] it was 20.9839; in assay [15], 21.2975; in assay [16], 21.24; in assay [17] it was 19.9263.
In the case of `Cc1ccc(C(=O)Nc2ccc(CN3CCN(CCCN)CC3)c(C(F)(F)F)c2)cc1C#Cc1cnc2cccnn12` [c-ponatinib, reference compound], the results for the “Average LFQ intensity” value in assay [18] and in [19] were 23.049 and 21.7826, respectively.
